From paper PMC12389591, “Syzygium oleosum (F.Muell.) B.Hyland (Myrtaceae), an Unexplored Australian Species: Anatomical and Micromorphological Study of Leafy Twigs, and Characterization and Biological Activity of Their Essential Oil” (Plants, 2025)
Read-outs that look alike come from different tables or passages of the source. Marks after values point to notes of the source that are not given here.

Columns and labels:
[1] = β-Carotene Bleaching test (BCB); conditions: n = 3; for BCB IC50 (95% confidence limits): pure compounds tested at the concentration naturally present within the EO, n.r. = IC50 not reached
Procedure: (§1) The antioxidant and anti-inflammatory properties of S. oleosum and its major bioactive compounds were evaluated using different in vitro assays based on different mechanisms and reaction environments according to Smeriglio et al.. Results were expressed as the concentration required to inhibit 50% of the oxidative or inflammatory activity (IC50, µg/mL), with corresponding 95% confidence limits (C.L.) calculated using the Litchfield and Wilcoxon method with PHARM/PCS software (version 4; Consulting, Wynnewood, PA, USA).
In brief, 200 µL of EO (0.094–1.5 mg/mL), its main bioactive compounds (0.0289–0.4619 mg/mL, 0.0251–0.4019 mg/mL, 0.010–0.1604 mg/mL, and 0.0092–0.1479 mg/mL for terpinolene, β-pinene, α-pinene, and γ-terpinene), butylated hydroxytoluene (BHT, 1 mg/mL), or blank (0.1% DMSO) was added to 5 mL of β-carotene emulsion, prepared from 250 µL of β-carotene in ethyl acetate (1 mg/mL), 4 µL linoleic acid, and 40 µL Tween-40. An emulsion lacking β-carotene served as negative control. The mixtures were incubated at 50 °C for 2 h, and absorbance at 470 nm was measured at 20 min intervals using the same instrument as in Section TEAC Assay.

[2] = Oxygen Radical Absorbance Capacity assay (ORAC); conditions: n = 3; for ORAC IC50 (95% confidence limits): pure compounds tested at the concentration naturally present within the EO, n.r. = IC50 not reached
Procedure: as §1
ORAC activity was evaluated by combining 20 µL EO (ranging from 0.003 to 0.05 mg/mL), its main bioactive compounds (0.0010–0.0154 mg/mL, 0.0008–0.0134 mg/mL, 0.0003–0.0053 mg/mL, and […] for terpinolene, β-pinene, α-pinene, and γ-terpinene) or Trolox (0.25–2 µg/mL) with 120 µL of fluorescein solution (117 nM). After a 15-min pre-incubation at 37 °C, 60 µL of freshly prepared 2,2′-azobis (2-amidinopropane) dihydrochloride (AAPH) solution (40 mM) was added to initiate peroxyl radical formation. Fluorescence decay was monitored every 30 s for 90 min using excitation at 485 nm and emission at 520 nm on a FLUOstar Omega microplate reader (BMG LABTECH, Ortenberg, Germany).

trypsin = molecular target: T1, trypsin (Bos taurus, UniProt P00760); experiment: Inhibition of protease activity (PIA); assay type: biochemical; conditions: pure compounds tested at the concentration naturally present within the EO, n = 3, n.r. = IC50 not reached
T1 sequence (P00760 24-246): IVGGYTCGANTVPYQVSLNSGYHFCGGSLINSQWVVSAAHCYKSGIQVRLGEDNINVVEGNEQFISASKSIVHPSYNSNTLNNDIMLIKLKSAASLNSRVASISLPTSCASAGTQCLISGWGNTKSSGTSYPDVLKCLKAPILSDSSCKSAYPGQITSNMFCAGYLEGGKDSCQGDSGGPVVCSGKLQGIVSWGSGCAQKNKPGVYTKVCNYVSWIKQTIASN
Procedure: (§2) The antioxidant and anti-inflammatory properties of S. oleosum and its major bioactive compounds were evaluated using different in vitro assays based on different mechanisms and reaction environments according to Smeriglio et al..
After a 20 min incubation at 37 °C, the reaction was halted with 400 µL of 2 M perchloric acid, followed by centrifugation at 3500 × g for 10 min.

[3] = Iron-Chelating Activity assay (ICA); conditions: n = 3; for ICA IC50 (95% confidence limits): pure compounds tested at the concentration naturally present within the EO, n.r. = IC50 not reached
Procedure: as §2
After 5 min at RT, 50 µL of ferrozine solution (5 mM) and deionized water were added to bring the total volume to 1.5 mL.

[4] = Trolox Equivalent Antioxidant Capacity assay (TEAC); conditions: n = 3; for TEAC IC50 (95% confidence limits): pure compounds tested at the concentration naturally present within the EO, n.r. = IC50 not reached
Procedure: as §1
To generate the 2,2′-azino-bis (3-ethylbenzothiazoline-6-sulfonic acid) (ABTS) radical cation solution, ABTS^+ (1.7 mM) was incubated with potassium persulfate (4.3 mM) in a 1:5 (v/v) ratio in the dark at room temperature (RT) for 12 h. The resulting solution was diluted to achieve an absorbance of 0.7 ± 0.02 at 734 nm. For the assay, 10 µL of either EO (ranging from 0.313 to 5 mg/mL), its main bioactive compounds (0.096–1.54 mg/mL, 0.084–1.34 mg/mL, 0.033–0.535 mg/mL, and 0.031–0.493 mg/mL for terpinolene, β-pinene, α-pinene, and γ-terpinene) or Trolox (0.625–10 µg/mL) was added to 200 µL of the ABTS solution and incubated at RT for 6 min. The absorbance at 734 nm was measured using a Multiskan™ GO UV-Vis microplate reader (Thermo Scientific, Waltham, MA, USA).

BSA = BSA (Bos taurus, UniProt P02769); experiment: Inhibition of protein denaturation (ADA); assay type: biochemical; conditions: for ADA IC50 (95% confidence limits): pure compounds tested at the concentration naturally present within the EO, n = 3, n.r. = IC50 not reached
BSA, sequence (P02769 25-607): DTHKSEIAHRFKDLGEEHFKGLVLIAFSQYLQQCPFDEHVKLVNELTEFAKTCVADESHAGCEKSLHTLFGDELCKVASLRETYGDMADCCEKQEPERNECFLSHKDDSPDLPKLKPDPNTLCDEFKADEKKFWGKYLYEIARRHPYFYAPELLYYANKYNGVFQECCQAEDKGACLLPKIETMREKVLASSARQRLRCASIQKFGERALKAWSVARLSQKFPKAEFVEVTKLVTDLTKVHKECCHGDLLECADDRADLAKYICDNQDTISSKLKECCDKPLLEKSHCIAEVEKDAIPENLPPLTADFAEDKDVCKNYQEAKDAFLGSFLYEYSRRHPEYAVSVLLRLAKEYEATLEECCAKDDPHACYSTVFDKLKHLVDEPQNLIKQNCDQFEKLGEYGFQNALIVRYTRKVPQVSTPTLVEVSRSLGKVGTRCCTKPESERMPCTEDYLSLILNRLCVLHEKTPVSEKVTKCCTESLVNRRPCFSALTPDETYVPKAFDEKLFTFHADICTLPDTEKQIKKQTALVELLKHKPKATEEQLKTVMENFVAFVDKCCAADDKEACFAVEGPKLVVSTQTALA

[5] = Ferric Reducing Antioxidant Power assay (FRAP); conditions: n = 3; for FRAP IC50 (95% confidence limits): pure compounds tested at the concentration naturally present within the EO, n.r. = IC50 not reached
Procedure: as §1
In this assay, 10 µL of EO (ranging from 0.313 to 5 mg/mL), its main bioactive compounds (0.096–1.54 mg/mL, 0.084–1.34 mg/mL, 0.033–0.535 mg/mL, and 0.031–0.493 mg/mL for terpinolene, β-pinene, α-pinene, and γ-terpinene) or Trolox (1.25–10 µg/mL) was mixed with 200 µL of FRAP reagent, pre-incubated at 37 °C. The reagent consisted of 10 mM 2,4,6-Tris (2-pyridyl)-s-triazine (TPTZ) in 40 mM HCl, 20 mM FeCl3·6H2O, and 300 mM acetate buffer (pH 3.6). The mixture was incubated for 4 min at RT in the dark before measuring absorbance at 593 nm with the same microplate reader used in Section TEAC Assay.

[6] = molecular target: butyrylcholinesterase (BChE) (Equus caballus, UniProt P81908); experiment: Cholinesterase inhibition, BChE; assay type: biochemical; conditions: pure compounds tested at the concentration naturally present in the EO, three experiments, n.r. = IC50 not reached
butyrylcholinesterase (BChE), sequence (P81908 whole entry): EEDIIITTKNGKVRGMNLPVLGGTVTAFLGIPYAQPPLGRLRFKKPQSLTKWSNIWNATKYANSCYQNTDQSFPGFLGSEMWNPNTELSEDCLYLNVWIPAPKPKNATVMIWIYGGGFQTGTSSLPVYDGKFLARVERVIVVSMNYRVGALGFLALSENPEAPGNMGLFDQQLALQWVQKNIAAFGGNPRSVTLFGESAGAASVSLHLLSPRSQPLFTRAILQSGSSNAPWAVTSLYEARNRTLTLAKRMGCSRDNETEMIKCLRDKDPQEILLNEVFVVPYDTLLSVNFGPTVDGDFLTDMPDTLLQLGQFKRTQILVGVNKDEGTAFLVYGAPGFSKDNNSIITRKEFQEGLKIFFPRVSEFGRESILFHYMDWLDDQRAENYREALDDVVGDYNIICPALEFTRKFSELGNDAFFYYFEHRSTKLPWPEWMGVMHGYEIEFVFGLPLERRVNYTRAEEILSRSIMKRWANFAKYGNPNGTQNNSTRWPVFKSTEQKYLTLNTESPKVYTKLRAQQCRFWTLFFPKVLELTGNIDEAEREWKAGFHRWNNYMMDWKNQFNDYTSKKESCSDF
Procedure: (§3) The cholinesterase inhibitory activity was evaluated according to the method described by Zheng and co-workers.

[7] = molecular target: acetylcholinesterase (AChE) (Electrophorus electricus, UniProt O42275); conditions: pure compounds tested at the concentration naturally present in the EO, three experiments, n.r. = IC50 not reached
acetylcholinesterase (AChE), sequence (O42275 24-633): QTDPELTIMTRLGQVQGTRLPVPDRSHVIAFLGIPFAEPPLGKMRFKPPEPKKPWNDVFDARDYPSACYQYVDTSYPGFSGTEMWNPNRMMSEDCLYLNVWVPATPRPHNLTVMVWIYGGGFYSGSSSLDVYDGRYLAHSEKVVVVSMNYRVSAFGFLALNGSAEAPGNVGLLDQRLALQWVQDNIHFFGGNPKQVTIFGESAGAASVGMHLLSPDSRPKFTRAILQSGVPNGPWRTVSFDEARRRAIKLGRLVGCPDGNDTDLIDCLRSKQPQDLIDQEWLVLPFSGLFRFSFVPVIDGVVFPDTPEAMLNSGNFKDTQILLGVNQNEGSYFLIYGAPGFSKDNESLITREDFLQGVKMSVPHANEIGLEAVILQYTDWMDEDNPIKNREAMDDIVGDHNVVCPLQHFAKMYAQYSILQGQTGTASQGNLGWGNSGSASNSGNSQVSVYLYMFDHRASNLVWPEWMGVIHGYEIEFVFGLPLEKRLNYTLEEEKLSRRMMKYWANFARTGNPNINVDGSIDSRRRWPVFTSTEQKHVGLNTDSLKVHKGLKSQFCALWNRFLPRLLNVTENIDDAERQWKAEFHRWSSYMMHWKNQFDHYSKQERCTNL
Procedure: as §3

Row | SMILES | BCB IC50 (95% confidence limits) [1] | ORAC IC50 (95% confidence limits) [2] | PIA IC50 (95% confidence limits) (trypsin) | ICA IC50 (95% confidence limits) [3] | TEAC IC50 (95% confidence limits) [4] | IC50 (BSA) | FRAP IC50 (95% confidence limits) [5] | BChE IC50 ± standard deviation [6] | other results
1 | CC1=CCC(=C(C)C)CC1 [Terpinolene] | 0.21 (0.10–0.45) mg/mL | 0.01 (0.00–0.04) mg/mL | did not reach the IC50 threshold | n.r. | n.r. | 2350 µM | n.r. |  | ICA IC50 (95% confidence limits) ([3]; listed as terpinolene): no appreciable activity; TEAC IC50 (95% confidence limits) ([4]; listed as terpinolene): neither compound reached 50% inhibition; FRAP IC50 (95% confidence limits) ([5]; listed as terpinolene): neither compound reached 50% inhibition
2 | CC1=CCC2CC1C2(C)C (stereo not drawn) [α-Pinene] | inactive and n.r. | n.r. |  |  | n.r. ^b |  | n.r. | n.r. | BChE IC50 ± standard deviation ([6]; listed as α-pinene): failed to reach the IC50 threshold; ADA IC50 (95% confidence limits) (BSA): n.r.; ADA IC50 (95% confidence limits) (BSA; listed as α-pinene): did not reach 50% inhibition
3 | C=C1CCC2CC1C2(C)C (stereo not drawn) [β-Pinene] | n.r. | n.r. | did not reach the IC50 threshold and n.r. | 0.03 (0.01–0.13) mg/mL | neither compound reached 50% inhibition and n.r. | 2640 µM | neither compound reached 50% inhibition and n.r. | n.r. | BCB IC50 (95% confidence limits) ([1]; listed as β-pinene): inactive; AChE IC50 ± standard deviation [7]: n.r.; AChE IC50 ± standard deviation ([7]; listed as β-pinene): did not achieve 50% inhibition; BChE IC50 ± standard deviation ([6]; listed as β-pinene): failed to reach the IC50 threshold
4 | Cc1cc(C(C)(C)C)c(O)c(C(C)(C)C)c1 [BHT, butylated hydroxytoluene] |  |  |  |  |  |  |  |  | BCB IC50 (95% confidence limits), reference standard ([1]; RS BHT): 0.35 (0.17–80.58) *** µg/mL
5 | O=C(O)CN(CCN(CC(=O)O)CC(=O)O)CC(=O)O [EDTA] |  |  |  |  |  |  |  |  | ICA IC50 (95% confidence limits), reference standard ([3]; RS EDTA): 5.72 (2.32–87.13) *** µg/mL
6 | Cc1c(C)c2c(c(C)c1O)CCC(C)(C(=O)O)O2 (centres unmarked) [trolox] |  |  |  |  |  |  |  |  | ORAC IC50 (95% confidence limits), reference standard ([2]; RS trolox): 0.68 (0.22–82.17) *** µg/mL; TEAC IC50 (95% confidence limits), reference standard ([4]; RS trolox): 3.78 (1.48–9.67) *** µg/mL; FRAP IC50 (95% confidence limits), reference standard ([5]; RS trolox): 3.72 (1.60–8.66) *** µg/mL
7 | CC1=CCC(C(C)C)=CC1 [γ-Terpinene] | 0.02 (0.02–0.03) mg/mL | n.r. | n.r. | no appreciable activity and n.r. | n.r. | 807 µM | n.r. | n.r. | PIA IC50 (95% confidence limits) (trypsin; listed as γ-terpinene): did not reach the IC50 threshold; AChE IC50 ± standard deviation [7]: n.r.; AChE IC50 ± standard deviation ([7]; listed as γ-terpinene): did not achieve 50% inhibition; BChE IC50 ± standard deviation ([6]; listed as γ-terpinene): failed to reach the IC50 threshold
